From US20190337924A1, “SUBSTITUTED HYDANTOIN AND THIOHYDANTOIN DERIVATIVES AS ANDROGEN RECEPTOR ANTAGONISTS” (Janssen Pharmaceutica NV, priority 2016, published 2019) come the findings set out here.

Molecules are shown by their SMILES. Counter-ions that a name gives are not always drawn. Like-named read-outs stand apart in the source and are kept apart here.

Assay [1] addresses T1, F876L mutant Androgen Receptor (AR-F876L) (Homo sapiens, UniProt P10275, F877L).
T1 construct: expressed in transfected cells; host or cells: LNCaP
T1 sequence (P10275 1-920 F877L): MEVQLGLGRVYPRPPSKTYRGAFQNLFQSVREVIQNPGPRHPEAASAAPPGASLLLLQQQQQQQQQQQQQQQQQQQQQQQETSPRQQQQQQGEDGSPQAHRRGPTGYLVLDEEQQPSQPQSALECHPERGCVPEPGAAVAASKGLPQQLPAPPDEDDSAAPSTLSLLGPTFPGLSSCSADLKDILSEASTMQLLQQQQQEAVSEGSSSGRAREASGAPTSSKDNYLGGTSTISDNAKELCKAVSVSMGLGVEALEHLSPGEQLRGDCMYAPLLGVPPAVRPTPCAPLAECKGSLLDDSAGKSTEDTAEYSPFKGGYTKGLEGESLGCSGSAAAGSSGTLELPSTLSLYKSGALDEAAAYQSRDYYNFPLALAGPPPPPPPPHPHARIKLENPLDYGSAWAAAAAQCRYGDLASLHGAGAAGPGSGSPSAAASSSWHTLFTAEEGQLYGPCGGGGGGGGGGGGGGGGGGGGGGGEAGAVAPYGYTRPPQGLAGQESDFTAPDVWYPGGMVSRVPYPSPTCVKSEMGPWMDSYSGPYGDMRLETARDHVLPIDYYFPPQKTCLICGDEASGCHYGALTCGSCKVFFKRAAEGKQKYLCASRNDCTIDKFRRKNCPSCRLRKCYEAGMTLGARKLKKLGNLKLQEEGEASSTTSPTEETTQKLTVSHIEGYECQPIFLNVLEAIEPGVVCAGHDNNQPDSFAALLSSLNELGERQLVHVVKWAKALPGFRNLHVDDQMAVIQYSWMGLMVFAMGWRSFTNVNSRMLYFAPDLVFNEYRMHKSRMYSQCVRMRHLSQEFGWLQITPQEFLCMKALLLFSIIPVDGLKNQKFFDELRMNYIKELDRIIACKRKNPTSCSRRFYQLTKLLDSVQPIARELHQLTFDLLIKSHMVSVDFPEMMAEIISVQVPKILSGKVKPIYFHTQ
Description: AR reporter assay, LNCaP-AR-F876L ANT (antagonist mode). The class given is cell-based. Conditions: for Emax: read-out: LNCaP-AR-F876L ANT MAX % Inh. The source says: (§1) LNCaP AR (cs) and LNCaP F876L luciferase cell lines were generated by transduction of each cell line (description of cell line generation Joseph J D, Lu N, Qian J, Sensintaffar J, Shao G, Brigham D, Moon M, Maneval E C, Chen I, Darimont B, Hager J H. A clinically relevant androgen receptor mutation confers resistance to second-generation antiandrogens enzalutamide and ARN-509. Cancer Discov 2013; 3:1020-1029) with an Androgen Response Element Firefly Luciferase lentiviral construct at an MOI (multiplicity of infection) of 50 following the manufacturer's instructions (Qiagen). A stable pooled-population cell line was generated using puromycin (Life Technologies) selection at 1:10,000 v/v. The protocol below was used for both cell lines and for testing of the compounds of Formula (I) of the present invention.
(§2) LNCaP cells were grown to about 80% confluence, media removed and cells rinsed in Hank's balanced salt solution prior to separation from the plate with 0.05% Trypsin EDTA. Cells were lifted and trypsin negated in complete CSS (charcoal stripped serum) culture media. CSS was maintained on cells for 24 h prior to assay, at which time 5,000 cells/[…] were seeded in Greiner 384 well White/White Tissue Culture Treated Plates and incubated for a further 1-2 hours at 37° C., 5% CO2, prior to addition of 10 μL of 4× Test Compounds (compounds described herein) or Assay Controls (all diluted in complete media containing 10% css). A further 10 μL of 4× R-1881 Agonist Challenge (antagonist assay) or Buffer (agonist assay) was then added (all diluted in complete media containing 10% css). Agonist challenge was at 400 pM for WT assay and 600 pM for F876L assay. Plates containing cells and compounds herein were incubated for a further 20-24 hours at 37° C., 5% CO2 before addition of 40 μL/well of Steady-Glo Luciferase Assay System Reagent (Promega#E2520). After 1 h, plates were read for luminescence on a BMG Pherastar.
Agonist challenge: R-1881 (Metribolone)—Agonist
Antagonist control (low control): 5-(5-(4-((1-Methylpiperidin-4-yl)oxy)phenyl)-8-oxo-6-thioxo-5,7-diazaspiro[3.4]octan-7-yl)-3-(trifluoromethyl)picolinonitrile (WO 2011/103202, EXAMPLE 19, Compound 129, CAS #1332390-06-3).
(1−(Sample RLU−Ave Low Control RLU[10 μM Antagonist Control])/(Ave High Control RLU [400 pM R-1881]−Ave Low Control RLU[10 μM Antagonist Control]))*100.
(§3) EC/IC50 calculations were achieved utilizing calculated RLU data and data fitting macros. Data were fit using least-squares methods to the following formula: […]
(§4) As used herein: • pIC50 is defined as −Log10(IC50 expressed in [Molar]). • pEC50 is defined as −Log10(EC50 expressed in [Molar]). • MAX % Inh is defined as the maximum % inhibition of R1881 control response observed for a compound over the tested concentration range. • MAX % Stim is defined as the maximum % stimulation (agonist response) observed for a compound over the tested concentration range. • LNCaP-AR-wt ANT refers to the reporter assay using LNCaP cells stably transfected with the Androgen Response Element Firefly Luciferase lentiviral construct and wild-type Androgen Receptor (AR-wt) in Antagonist mode. • LNCaP-AR-wt AG refers to the reporter assay using LNCaP cells stably transfected with the Androgen Response Element Firefly Luciferase lentiviral construct and wild-type Androgen Receptor (AR-wt) in Agonist mode. • LNCaP-AR-F876L ANT refers to the reporter assay using LNCaP cells stably transfected with the Androgen Response Element Firefly Luciferase lentiviral construct and F876L mutant Androgen Receptor (AR-F876L) in Antagonist mode. • LNCaP-AR-F876L AG refers to the reporter assay using LNCaP cells stably transfected with the Androgen Response Element Firefly Luciferase lentiviral construct and F876L mutant Androgen Receptor (AR-F876L) in Agonist mode.
In general terms: Reporter assays use an easily measured gene product as a stand-in for the process of interest.

Assay [2] concerns the target T1, F876L mutant Androgen Receptor (AR-F876L). Description: AR reporter assay, LNCaP-AR-F876L AG (agonist mode). The class given is cell-based. Conditions: for Emax: read-out: LNCaP-AR-F876L AG MAX % Stim.
Text: as §1, §2
((Sample RLU−Ave Low Control RLU[DMSO/Buffer])/(Ave High Control RLU [1 μM R-1881]—Ave Low Control RLU[DMSO/Buffer]))*100.
as §3, §4

Where [3] appears, read: antagonist mode, 600 pM R-1881 challenge, luciferase reporter, -Log10(IC50 in Molar), read-out: LNCaP-AR-F876L ANT pIC50 (converted).

`CN1CCC(Oc2ccc(N3C(=S)N(c4ccc(C#N)c(Cl)c4)C(=O)C3(C)C)cn2)CC1` [Compound 10, 2-Chloro-4-(4,4-dimethyl-3-(6-((1-methylpiperidin-4-yl)oxy)pyridin-3-yl)-5-oxo-2-thioxoimidazolidin-1-yl)benzonitrile hydrochloride]: in assay [1], the IC50 was 85.1 nM and the Emax came out at 101%. In addition, in assay [2], the EC50 was over 15100 nM and the Emax was found to be 0.1%.

`CC1(C)C(=O)N(c2ccc(C#N)c(C(F)(F)F)c2)C(=S)N1c1ccc(OC2CCNCC2)cc1` [Compound 1, 4-(4,4-Dimethyl-5-oxo-3-(4-(piperidin-4-yloxy)phenyl)-2-thioxoimidazolidin-1-yl)-2-(trifluoromethyl)benzonitrile]: in assay [1], the IC50 is 41.7 nM and the Emax came out at 102%. In assay [2], the EC50 was over 15100 nM and the Emax was -0.1%.

Regarding `COc1cc(N2C(=O)C3(CCC3)N(c3ccc(OC4CCN(C)CC4)cc3)C2=S)ccc1C#N` [Compound 19, 2-Methoxy-4-(5-(4-((1-methylpiperidin-4-yl)oxy)phenyl)-8-oxo-6-thioxo-5,7-diazaspiro[3.4]octan-7-yl)benzonitrile], in assay [1], the IC50 is 83.2 nM and the Emax was found to be 101%. In addition, in assay [2], the EC50 was over 15100 nM and the Emax amounted to 0.3%.

On to `CN1CCC(Oc2ccc(N3C(=S)N(c4ccc(C#N)c(C(F)(F)F)c4)C(=O)C34CCC4)cn2)CC1` [Compound 14, 4-(5-(6-((1-Methylpiperidin-4-yl)oxy)pyridin-3-yl)-8-oxo-6-thioxo-5,7-diazaspiro[3.4]octan-7-yl)-2-(trifluoromethyl)benzonitrile], for which, in assay [1], the IC50 is 57.5 nM and the Emax amounted to 101%. For the same compound, in assay [2], the EC50 was over 15100 nM and the Emax came to 0.1%.

Consider `CC1(C)C(=O)N(c2ccc(C#N)c(Cl)c2)C(=S)N1c1ccc(OC2CCNCC2)nc1` [Compound 9, 2-Chloro-4-(4,4-dimethyl-5-oxo-3-(6-(piperidin-4-yloxy)pyridin-3-yl)-2-thioxoimidazolidin-1-yl)benzonitrile hydrochloride], for which, in assay [1], the IC50 was 38.9 nM and the Emax is 100%. Besides, in assay [2], the EC50 was over 15100 nM and the Emax was 0%.

Turning to `CN1CCC(Oc2ncc(N3C(=S)N(c4ccc(C#N)c(C(F)(F)F)c4)C(=O)C34CCC4)cn2)CC1` [Compound 16, 4-(5-(2-((1-Methylpiperidin-4-yl)oxy)pyrimidin-5-yl)-8-oxo-6-thioxo-5,7-diazaspiro[3.4]octan-7-yl)-2-(trifluoromethyl)benzonitrile], the IC50 in assay [1] (setting [3]) is 166 nM. Besides, the Emax in assay [1] is 101%. Further, in assay [2], the EC50 was over 15100 nM and the Emax amounted to 0.1%.

Turning to `CN1CCC(Oc2ccc(N3C(=S)N(c4ccc(C#N)c(C(F)(F)F)c4)C(=O)C3(C)C)cc2)CC1` [Compound 2, 4-(4,4-Dimethyl-3-(4-((1-methylpiperidin-4-yl)oxy)phenyl)-5-oxo-2-thioxoimidazolidin-1-yl)-2-(trifluoromethyl)benzonitrile hydrochloride], in assay [1], the IC50 is 69.2 nM and the Emax turned out to be 101%. Moreover, in assay [2], the EC50 is over 15100 nM and the Emax came out at 0.1%.

As for `Cc1cc(N2C(=O)C3(CCC3)N(c3ccc(OC4CCN(C)CC4)nc3)C2=S)ccc1C#N` [Compound 18, 2-Methyl-4-(5-(6-((1-methylpiperidin-4-yl)oxy)pyridin-3-yl)-8-oxo-6-thioxo-5,7-diazaspiro[3.4]octan-7-yl)benzonitrile], the IC50 in assay [1] (setting [3]) is 282 nM. Further, the Emax in assay [1] was 99.8%; in assay [2], 2.6%. Further, the EC50 in assay [2] (agonist mode (buffer, no R-1881), -Log10(EC50 in Molar), read-out: LNCaP-AR-F876L AG pEC50 (converted)) was over 15100 nM.

Take `N#Cc1ccc(N2C(=O)C3(CCC3)N(c3cnc(OC4CCNCC4)nc3)C2=S)cc1C(F)(F)F` [Compound 15, 4-(8-Oxo-5-(2-(piperidin-4-yloxy)pyrimidin-5-yl)-6-thioxo-5,7-diazaspiro[3.4]octan-7-yl)-2-(trifluoromethyl)benzonitrile]: in assay [1] (setting [3]), the IC50 is 107 nM. Further, the Emax in assay [1] was determined as 101%. Moreover, in assay [2], the EC50 is over 15100 nM and the Emax was -0.1%.

Take `N#Cc1ccc(N2C(=O)C3(CCC3)N(c3ccc(OC4CCNCC4)cc3)C2=S)cc1C(F)(F)F` [Compound 11, 4-(8-Oxo-5-(4-(piperidin-4-yloxy)phenyl)-6-thioxo-5,7-diazaspiro[3.4]octan-7-yl)-2-(trifluoromethyl)benzonitrile]: in assay [1], the IC50 is 107 nM and the Emax worked out at 102%. In assay [2], the EC50 was over 15100 nM and the Emax amounted to 0.1%.

As to `CN1CCC(Oc2ccc(N3C(=S)N(c4ccc(C#N)c(Cl)c4)C(=O)C34CCC4)cn2)CC1` [Compound 24, 2-Chloro-4-(5-(6-((1-methylpiperidin-4-yl)oxy)pyridin-3-yl)-8-oxo-6-thioxo-5,7-diazaspiro[3.4]octan-7-yl)benzonitrile hydrochloride], in assay [1], the IC50 is 77.6 nM and the Emax is 99.8%. Moreover, in assay [2], the EC50 is over 15100 nM and the Emax came to 0.1%.

Consider `CN1CCC(Oc2ccc(N3C(=S)N(c4ccc(C#N)c(Cl)c4)C(=O)C34CCC4)cc2)CC1` [Compound 22, 2-Chloro-4-(5-(4-((1-methylpiperidin-4-yl)oxy)phenyl)-8-oxo-6-thioxo-5,7-diazaspiro[3.4]octan-7-yl)benzonitrile], for which, in assay [1], the IC50 is 112 nM and the Emax is 99.5%. In assay [2], the EC50 was over 15100 nM and the Emax was determined as 0%.
